The values that follow come from US4118506A, “Pharmaceutical compositions containing 1,3-dithiol-2-ylidene malonate derivatives” (Nihon Nohyaku Co., Ltd., priority 1976, dated 1978).

Assay [1] concerns acute liver damage induced by carbon tetrachloride. Put plainly: protective effect on acute liver damage associated with centrilobular necrosis, carbon tetrachloride model. It is filed as in vivo, mouse (dd strain). The following applies: 250 mg/kg oral 6 h before CCl4, 24 h after CCl4. From the text: Carbon tetrachloride (CCl4) administration induces centrilobular necrosis of the liver associated with loss of diphosphopyridine nucleotide, hepatic glycogen, coenzyme A and increase in neutral fat. Release of several enzymes from the hepatocytes, and increase of enzyme activities in the plasma are recognized as the result of the damage of the liver. A suitable means for evaluating the degree of damage induced by CCl4 or the degree of protection afforded by drugs is to study the plasma glutamic-pyruvic transaminase (p-GPT) activity.
Methods: The test compounds were dissolved or suspended in olive oil and administered orally at the dose of 250 mg/kg to the mice (Four-week-old male mice-dd strain). After 6 hours, CCl4 was administered orally (0.05 ml/kg as olive oil solution). Animals were killed 24 hours after CCl4 administration, and the liver was grossly observed. The plasma was obtained by centrifugation. Activities of p-GPT were determined by the method of Reitman and Frankel and expressed in Karmen units.
Score for liver damage index was as follows:
Each figure indicates average of 5 to 6 mice. Values of p-GPT over 1,000 Karmen unit regarded as 1,000 for calculation of average for convenience.

The test system of assay [2] is bile flow and excretion of biliary salt. Put plainly: cholagogic action: bile flow and biliary salt excretion. It is filed as in vivo, rat (SD-JCL strain). Set-up: key to excretion of biliary salt: relative to 1 h pre-drug amount taken as 100. As to the method: The male rat (4 week-old, SD-JCL strain) was anesthetized with sodium pentobarbital (37.5 mg/kg, intraperitoneal injection). The abdominal cavity was opened through a midline incision. The common bile duct was catheterized with polyethylene tube o.d. 0.8 mm. The catheter was brought to the outside through the abdominal incision wound prior to closing. Bile was collected from the catheter continuously with time intervals of one hour. The quantity of bile produced in one hour was determined by weighing and that of biliary salt was determined by enzymatic method (Ikagaku Jikkenho Koza 1B, Biological Constituents II, edited by Tamino […]). The amount of biliary salts was represented as chloic acid equivalent. In the representation of the results, the quantities of bile and biliary salts produced in one hour prior to the administration of drug were taken as 100. […] As reference, anethol trithion was used.

Where [3] appears, read: 5 hours after administration, 200 mg/kg oral.

Regarding `CC(C)OC(=O)C(C(=O)OC(C)C)=C1SC=CS1` [Compound 4, diisopropyl 1,3-dithiol-2-ylidene malonate], the “Liver Damage Index” value in assay [1] (0 normal, 2 slightly recognized, 4 clearly observable, 6 heavy damage, average of 5 to 6 mice) was determined as 0.0. In assay [1] (values over 1,000 taken as 1,000), this compound showed a p-GPT of 36 Karmen units. In addition, the “excretion of biliary salt” value in assay [2] (200 mg/kg oral, 1 hour after treatment, before treatment = 100) came out at 108 ± 15; in assay [2] (200 mg/kg oral, 2 hours after treatment, before treatment = 100), 132 ± 25; in assay [2] (200 mg/kg oral, 3 hours after treatment, before treatment = 100), 138 ± 27; in assay [2] (200 mg/kg oral, 4 hours after treatment, before treatment = 100), 117 ± 27; in assay [2] (200 mg/kg oral, 5 hours after treatment, before treatment = 100), 90 ± 21; in assay [2] (before treatment, 1 hour, taken as 100 (normalisation)), 100. For the same compound, the “amount of total biliary salts excreted relative to control” value in assay [2] (setting [3]) is recorded as 1.7 times. The “quantity of total excreted bile relative to control” value in assay [2] (setting [3]) stood at 1.2 times.
